# Results reported in patent publication US10526336B2, “Fused heteroaryl derivatives as orexin receptor antagonists” (Merck Sharp & Dohme Corp., priority 2014, dated 2020).
# Biological target: human orexin-2 receptor (Homo sapiens (Human), UniProt O43614)
# Experiment: FLIPR Ca2+ Flux Assay, orexin-2 receptor antagonism in CHO cells
# Format: cell-based
# Details: CHO cells expressing the human orexin-2 receptor; agonist 70 pM Ala-6,12 orexin-A; read-out: hOX2 FLIPR IC50
# How it was run: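 CHO cells expressing rat OX1R or human OX2R, Fluo-4AM loaded, given compounds for 5 min, then challenged with 70 pM Ala-6,12 human orexin-A in HBSS/HEPES/BSA/probenecid, pH 7.4. FLIPR calcium fluorescence recorded 5 min; peak height versus agonist-alone gives IC50.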
# Chain of human orexin-2 receptor (O43614 whole entry): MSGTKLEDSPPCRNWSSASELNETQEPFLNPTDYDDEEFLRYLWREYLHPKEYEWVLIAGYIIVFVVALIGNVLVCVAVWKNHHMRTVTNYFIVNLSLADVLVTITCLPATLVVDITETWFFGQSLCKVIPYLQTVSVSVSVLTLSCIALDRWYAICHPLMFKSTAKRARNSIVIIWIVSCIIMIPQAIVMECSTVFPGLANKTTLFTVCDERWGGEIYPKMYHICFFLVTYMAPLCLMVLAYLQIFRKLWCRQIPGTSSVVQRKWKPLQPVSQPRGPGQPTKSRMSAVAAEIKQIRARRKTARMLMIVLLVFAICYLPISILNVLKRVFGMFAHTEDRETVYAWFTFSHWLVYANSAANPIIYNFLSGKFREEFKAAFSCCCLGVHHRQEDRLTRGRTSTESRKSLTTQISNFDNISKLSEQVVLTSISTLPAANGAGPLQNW
row,SMILES,IC50 [nM]
1,"C[C@@H]1CC[C@@H](Oc2ccnc3ocnc23)CN1C(=O)c1ccccc1-n1ncnn1 [Example 92, (2-(2H-tetrazol-2-yl)phenyl)((2R,5R)-2-methyl-5-(oxazolo [5,4-b]pyridin-7-yloxy)piperidin-1-yl)methanone]",36.7
2,"C[C@@H]1CC[C@@H](Oc2nccn3c(C(F)F)cnc23)CN1C(=O)c1ccccc1-c1ncccn1 [Example 54, ((2R,5R)-5-((3-(difluoromethyl)imidazo[1,2-a]pyrazin-8-yl)oxy)-2-methylpiperidin-1-yl)(2-(pyrimidin-2-yl)phenyl)methanone]",24.1
3,"Cc1nc2ccnc(O[C@@H]3CC[C@@H](C)N(C(=O)c4ccccc4-n4nccn4)C3)n2n1 [Example 104, (2-(2H-1,2,3-triazol-2-yl)phenyl)((2R,5R)-2-methyl-5-((2-methyl-[1,2,4]triazolo[1,5-c]pyrimidin-5-yl)oxy)piperidin-1-yl)methanone]",60
4,"C[C@@H]1CC[C@@H](Oc2nccn3nccc23)CN1C(=O)c1ccccc1-n1nccn1 [Example 69, (2-(2H-1,2,3-triazol-2-yl)phenyl)((2R,5R)-2-methyl-5-(pyrazolo[1,5-a]pyrazin-4-yloxy)piperidin-1-yl)methanone]",26.8
5,"COC(=O)c1ccccc1C(=O)N1C[C@H](Oc2nccn3c(C(F)F)cnc23)CC[C@H]1C [Example 48, methyl 2-((2R,5R)-5-((3-(difluoromethyl)imidazo[1,2-α]pyrazin-8-yl)oxy)-2-methylpiperidine-1-carbonyl)benzoate]",24.9
6,"C[C@@H]1CC[C@@H](Oc2nccn3c(C(F)(F)F)cnc23)CN1C(=O)c1ccccc1CS(C)(=O)=O [Example 61, ((2R,5R)-2-methyl-5-((3-(trifluoromethyl)imidazo [1,2-α]pyrazin-8-yl)oxy)piperidin-1-yl)(2-((methylsulfonyl)methyl)phenyl)methanone]",170
7,"C[C@@H]1CC[C@@H](Oc2nccn3c(C(F)F)cnc23)CN1C(=O)c1ccccc1C1(C#N)CC1 [Example 42, 1-(2-((2R,5R)-5-((3-(difluoromethyl)imidazo[1,2-α]pyrazin-8-yl)oxy)-2-methylpiperidine-1-carbonyl)phenyl)cyclopropanecarbonitrile]",5
8,"CC(O)c1cnc2c(O[C@@H]3CC[C@@H](C)N(C(=O)c4ccccc4-n4nccn4)C3)nccn12 (stereo partly drawn) [Example 68, (2-(2H-1,2,3-triazol-2-yl)phenyl)((2R,5R)-5-((3-(1-hydroxyethyl)imidazo[1,2-a]pyrazin-8-yl)oxy)-2-methylpiperidin-1-yl)methanone]",115
9,"C[C@@H]1CC[C@@H](Oc2nccn3ccnc23)CN1C(=O)c1ccccc1CC(F)(F)F [Example 3, ((2R,5R)-5-(imidazo[1,2-α]pyrazin-8-yloxy)-2-methylpiperidin-1-yl)(2-(2,2,2-trifluoroethyl)phenyl)methanone]",50.4
10,"C[C@@H]1CC[C@@H](Oc2ccnc3ocnc23)CN1C(=O)c1ccccc1-n1nccn1 [Example 91, (2-(2H-1,2,3-triazol-2-yl)phenyl)((2R,5R)-2-methyl-5-(oxazolo[5,4-b]pyridin-7-yloxy)piperidin-1-yl)methanone]",16.3
11,"C[C@@H]1CC[C@@H](Nc2nccn3nccc23)CN1C(=O)c1ccccc1-n1nccn1 [Example 86, (2-(2H-1,2,3-triazol-2-yl)phenyl)((2R,5R)-2-methyl-5-(pyrazolo[1,5-a]pyrazin-4-ylamino)piperidin-1-yl)methanone]",20.5
12,"Cc1cn2ccnc(O[C@@H]3CC[C@@H](C)N(C(=O)c4ccccc4C4(C#N)CC4)C3)c2n1 [Example 9, 1-(2-((2R,5R)-2-methyl-5-((2-methylimidazo[1,2-α]pyrazin-8-yl)oxy)piperidine-1-carbonyl)phenyl)cyclopropanecarbonitrile]",13.2
13,"Cc1cnn2ccnc(O[C@@H]3CC[C@@H](C)N(C(=O)c4ccccc4-n4nccn4)C3)c12 [Example 89, (2-(2H-1,2,3-triazol-2-yl)phenyl)((2R,5R)-2-methyl-5-((3-methylpyrazolo[1,5-a]pyrazin-4-yl)oxy)piperidin-1-yl)methanone]",19.2
14,"COCc1ccccc1C(=O)N1C[C@H](Oc2nccn3c(C(F)F)cnc23)CC[C@H]1C [Example 45, ((2R,5R)-5-((3-(difluoromethyl)imidazo[1,2-α]pyrazin-8-yl)oxy)-2-methylpiperidin-1-yl)(2-(methoxymethyl)phenyl)methanone]",108
15,"CCOc1ccccc1C(=O)N1C[C@H](Oc2nccn3nccc23)CC[C@H]1C [Example 81, (2-ethoxyphenyl)((2R,5R)-2-methyl-5-(pyrazolo[1,5-α]pyrazin-4-yloxy)piperidin-1-yl)methanone]",51.9
16,"Cc1cn2ccnc(O[C@@H]3CC[C@@H](C)N(C(=O)c4cccnc4OCC(F)(F)F)C3)c2n1 [Example 16, ((2R,5R)-2-methyl-5-((2-methylimidazo [1,2-α]pyrazin-8-yl)oxy)piperidin-1-yl) (2-(2,2,2-trifluoroethoxy)pyridin-3-yl)methanone]",33.5
17,"CC(C)Oc1ccccc1C(=O)N1C[C@H](Oc2nccn3nccc23)CC[C@H]1C [Example 84, (2-isopropoxyphenyl)((2R,5R)-2-methyl-5-(pyrazolo[1,5-α]pyrazin-4-yloxy)piperidin-1-yl)methanone]",43.5
18,"C[C@@H]1CC[C@@H](Oc2nccn3ccnc23)CN1C(=O)c1ccccc1CS(C)(=O)=O [Example 77, ((2R,5R)-5-(imidazo[1,2-α]pyrazin-8-yloxy)-2-methylpiperidin-1-yl)(2-((methylsulfonyl)methyl)phenyl) methanone]",27.9
19,"C[C@@H]1CC[C@@H](Oc2nccn3c(C(F)F)cnc23)CN1C(=O)c1ccccc1-n1ncnn1 [Example 44, (2-(2H-tetrazol-2-yl)phenyl)((2R,5R)-5-((3-(difluoromethyl)imidazo[1,2-α]pyrazin-8-yl)oxy)-2-methylpiperidin-1-yl)methanone]",9.6
20,"C[C@@H]1CC[C@@H](Oc2cccn3c(=O)n(C)nc23)CN1C(=O)c1ccccc1-n1nccn1 [Example 106, 8-(((3R,6R)-1-(2-(2H-1,2,3-triazol-2-yl)benzoyl)-6-methylpiperidin-3-yl)oxy)-2-methyl-[1,2,4]triazolo[4,3-a]pyridin-3(2H)-one]",178
21,"Cc1cn2ccnc(O[C@@H]3CC[C@@H](C)N(C(=O)c4cccnc4-n4cccn4)C3)c2n1 [Example 18, (2-(1H-pyrazol-1-yl)pyridin-3-yl) ((2R,5R)-2-methyl-5-((2-methylimidazo[1,2-α]pyrazin-8-yl)oxy)piperidin-1-yl)methanone]",58.7
22,"Cc1ncc2c(O[C@@H]3CC[C@@H](C)N(C(=O)c4ccccc4-n4nccn4)C3)nccn12 [Example 103, (2-(2H-1,2,3-triazol-2-yl)phenyl)((2R,5R)-2-methyl-5-((3-methylimidazo[1,5-a]pyrazin-8-yl)oxy)piperidin-1-yl)methanone]",23.5
23,"C[C@@H]1CC[C@@H](Oc2nccn3c(C(F)F)cnc23)CN1C(=O)c1cscc1-n1nccn1 [Example 41, (4-(2H-1,2,3-triazol-2-yl)thiophen-3-yl)((2R,5R)-5-((3-(difluoromethyl)imidazo[1,2-α]pyrazin-8-yl)oxy)-2-methylpiperidin-1-yl)methanone]",45.7
24,"C[C@@H]1CC[C@@H](Nc2nccc3ncn(C)c23)CN1C(=O)c1ccccc1-n1nccn1 [Example 100, (2-(2H-1,2,3-triazol-2-yl)phenyl)((2R,5R)-2-methyl-5-((3-methyl-3H-imidazo[4,5-c]pyridin-4-yl)amino)piperidin-1-yl)methanone]",95.8
25,"CCc1cnc2c(O[C@@H]3CC[C@@H](C)N(C(=O)c4ccccc4-n4nccn4)C3)nccn12 [Example 37, (2-(2H-1,2,3-triazol-2-yl)phenyl)((2R,5R)-5-((3-ethylimidazo[1,2-a]pyrazin-8-yl)oxy)-2-methylpiperidin-1-yl)methanone]",29.2
26,"C[C@@H]1CC[C@@H](Oc2nccc3c2cnn3C)CN1C(=O)c1ccccc1-n1nccn1 [Example 95, (2-(2H-1,2,3-triazol-2-yl)phenyl)((2R,5R)-2-methyl-5-((1-methyl-1H-pyrazolo[4,3-c]pyridin-4-yl)oxy)piperidin-1-yl)methanone]",17.8
